Laboratory results taken from patent US20180153995A1, “USE OF ANTIMICROBIAL POLYMERS FOR RE-SENSITIZATION OF MICROORGANISMS UPON EMERGENCE OF RESISTANCE TO ANTI-MICROBIAL AGENTS” (Technion Research & Development Foundation Limited, priority 2008, published 2018).
Values joined by “and” are separate entries in the source; they are usually repeats but may differ in a detail not shown here. Equal values may be shown once. Read-outs that look alike come from different tables or passages of the source.

Tests used:
E. coli 16327 = experiment: microbe, parasite or virus in culture
S. aureus 43300 = experiment: Antibiotic MIC by microdilution with or without sub-MIC polymer; assay type: cell-based, Staphylococcus aureus
E. coli 16329 = assay type: cell-based, Escherichia coli
In short: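 Bacterial suspensions (100 μl) were added to 100 μl of culture medium carrying 2-fold serially diluted antibiotic together with a fraction of the polymer's MIC, or to plain medium as control. Plates were incubated 24 hours at 37° C, and proliferation was read at 620 nm against calibration standards. Starting inoculum was 10^5 bacteria per ml.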

S. aureus 15877 = experiment: Antibiotic MIC by microdilution with or without sub-MIC polymer; assay type: cell-based, Staphylococcus aureus
Procedure: (§1) MICs were determined by microdilution susceptibility testing in 96-well plates (by Nunc) using inocula of 10^5 bacteria per ml. Cell populations were evaluated by optical density measurements at 620 nm and were calibrated against a set of standards. Hundred (100) μl of a bacterial suspension were added to 100 μl of culture medium (control) or to 100 μl of culture medium containing various polymer concentrations in 2-fold serial dilutions. Inhibition of proliferation was determined by optical density measurements at 620 nm after an incubation period of 24 hours at 37° C.
(§2) MICs were determined by microdilution susceptibility testing in 96-well plates (Nunc) using inocula of 10^5 bacteria per ml. One hundred (100) μl of a bacterial suspension were added to 100 μl of culture medium (control) or to 100 μl of culture medium containing various antibiotic and C12(5-ene)KKNC12KNH2 (SEQ ID NO: 2) concentrations in 2-fold serial dilutions. Inhibition of proliferation was determined by optical density measurements at 620 nm after an incubation period of 24 hours at 37° C.

[1] = test system: E. coli K-12 efflux knockout mutant; assay type: cell-based, Escherichia coli; details: E. coli AG100A (efflux−)
In short: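 Broth microdilution, inocula 10^5 bacteria/ml, 24 h at 37 °C. Growth read as OD620 against calibration standards.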

S. maltophila 748 = experiment: Antibiotic MIC by microdilution with or without sub-MIC polymer; assay type: cell-based, Stenotrophomonas maltophila
E. coli 14384 = experiment: as above; assay type: cell-based, Escherichia coli
In short: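 OD 620 nm after 24 h at 37° C gave the inhibition of proliferation. Bacteria at 10^5 per ml were exposed to 2-fold serial antibiotic dilutions, with or without […].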

S. aureus 15819 = experiment: as above; assay type: cell-based, Staphylococcus aureus; details: S. aureus 15819
Procedure: as §1, §2

[2] = test system: E. coli K-12 resistant wild type; assay type: cell-based, Escherichia coli; details: E. coli AG100 (w.t.)
MRSA 15903 = experiment: microbe, parasite or virus in culture; assay type: cell-based, Staphylococcus aureus
In short: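 Values are FIC indexes, summing each agent's MIC in combination divided by its MIC alone, for MRSA 15903. Interpretation: <0.5 clear re-sensitization, 0.5 to 4 marginal or none, >4 antagonistic.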

[3] = +¼ MIC (1.6 μM) C12(5-ene)KKNC12KNH2
[4] = +⅓ MIC (2.1 μM) C12(5-ene)KKNC12KNH2
[5] = +½ MIC (3.12 μM) C12(5-ene)KKNC12KNH2
[6] = polymer at ¼ of its MIC (Table 16)
[7] = polymer at ½ of its MIC (Table 16)
[8] = polymer at ⅓ of its MIC (Table 16)
[9] = the OAK at ¼ of its MIC (Table 17)
[10] = the OAK at ½ of its MIC (Table 17)
[11] = the OAK at ⅓ of its MIC (Table 17)
[12] = +½ MIC (3.12 μM) C12K(KNC12K)3NH2
[13] = +⅓ MIC (2.1 μM) C12K(KNC12K)3NH2

## CCN1CCN(C(=O)N[C@@H](C(=O)N[C@@H]2C(=O)N3[C@@H]2SC(C)(C)[C@@H]3C(=O)O)c2ccccc2)C(=O)C1=O [Piperacillin, piperacillin]
E. coli 16327
  Antibiotic MIC: 128 µg/mL and 256 µg/mL
E. coli 16327; E. coli 16327, +¼ MIC (1.6 μM) C12K(KNC12K)2NH2
  Antibiotic MIC: 256 µg/mL
E. coli 16327; E. coli 16327, +½ MIC (3.12 μM) C12K(KNC12K)2NH2
  Antibiotic MIC: 64 µg/mL
E. coli 16327; E. coli 16327, +⅓ MIC (2.1 μM) C12K(KNC12K)2NH2
  Antibiotic MIC: 256 µg/mL
E. coli 16327; E. coli 16327, no polymer (None), Table 9
  Antibiotic MIC: 256 µg/mL
E. coli 16327; E. coli 16327, no polymer (None), Table 10
  Antibiotic MIC: 512 µg/mL
E. coli 16327; E. coli 16327, no polymer (None), Table 12
  Antibiotic MIC: 256 µg/mL
E. coli 16327; E. coli U-16327, antibiotic alone (Table 15)
  Antibiotic MIC, None: 256 µg/mL
E. coli 16327; E. coli U-16327, polymer at ¼ of its MIC
  Antibiotic MIC in presence of C12K(NC8K)7NH2 (SEQ ID NO: 4), +¼ MIC: 256 µg/mL
E. coli 16327; E. coli U-16327, polymer at ½ of its MIC
  Antibiotic MIC in presence of C12K(NC8K)7NH2 (SEQ ID NO: 4), +½ MIC: 32 to 64 µg/mL
E. coli 16327; E. coli U-16327, polymer at ⅓ of its MIC
  Antibiotic MIC in presence of C12K(NC8K)7NH2 (SEQ ID NO: 4), +⅓ MIC: 128 to 256 µg/mL
S. aureus 43300; [3]
  Antibiotic MIC: 4 µg/mL
S. aureus 43300; +¼ MIC (1.6 μM) C12K(KNC12K)2NH2
  Antibiotic MIC: 32 µg/mL
S. aureus 43300; +¼ MIC (1.6 μM) C12KKNC12KNH2
  Antibiotic MIC: 32 µg/mL
S. aureus 43300; +¼ MIC (1.6 μM) C16(9-ene)KKNC12KNH2
  Antibiotic MIC: 4 µg/mL
S. aureus 43300; +½ MIC (3.12 μM) C12KKNC12KNH2
  Antibiotic MIC: 8 µg/mL
S. aureus 43300; +½ MIC (3.12 μM) C16(9-ene)KKNC12KNH2
  Antibiotic MIC: 2 µg/mL
S. aureus 43300; [4]
  Antibiotic MIC: 4 µg/mL
S. aureus 43300; +⅓ MIC (2.1 μM) C12K(KNC12K)2NH2
  Antibiotic MIC: 32 µg/mL
S. aureus 43300; +⅓ MIC (2.1 μM) C12KKNC12KNH2
  Antibiotic MIC: 16 µg/mL
S. aureus 43300; +⅓ MIC (2.1 μM) C16(9-ene)KKNC12KNH2
  Antibiotic MIC: 4 µg/mL
E. coli 16329
  Antibiotic MIC: 128 to 256 µg/mL
E. coli 16329; E. coli 16329, no polymer (None), Table 10
  Antibiotic MIC: 256 µg/mL
E. coli 16329; E. coli U-16329, +¼ MIC C12K(NC8K)5NH2
  Antibiotic MIC: 256 µg/mL
E. coli 16329; E. coli U-16329, +½ MIC C12K(NC8K)5NH2
  Antibiotic MIC: 128 µg/mL
E. coli 16329; E. coli U-16329, +⅓ MIC C12K(NC8K)5NH2
  Antibiotic MIC: 128 to 256 µg/mL
E. coli 16329; E. coli U-16329, antibiotic alone (Table 15)
  Antibiotic MIC, None: 256 µg/mL
E. coli 16329; E. coli U-16329, no polymer (None), Table 14
  Antibiotic MIC: 256 µg/mL
E. coli 16329; E. coli U-16329, polymer at ¼ of its MIC
  Antibiotic MIC in presence of C12K(NC8K)7NH2 (SEQ ID NO: 4), +¼ MIC: 128 to 256 µg/mL
E. coli 16329; E. coli U-16329, polymer at ½ of its MIC
  Antibiotic MIC in presence of C12K(NC8K)7NH2 (SEQ ID NO: 4), +½ MIC: 64 to 128 µg/mL
E. coli 16329; E. coli U-16329, polymer at ⅓ of its MIC
  Antibiotic MIC in presence of C12K(NC8K)7NH2 (SEQ ID NO: 4), +⅓ MIC: 128 to 256 µg/mL
S. aureus 15877; [3]
  Antibiotic MIC: 16 to 32 µg/mL
S. aureus 15877; [5]
  Antibiotic MIC: 8 to 16 µg/mL
S. aureus 15877; [4]
  Antibiotic MIC: 16 to 32 µg/mL
S. aureus 15877; no polymer (None), Table 8
  Antibiotic MIC: 16 to 32 µg/mL
[1]; antibiotic alone (Table 16)
  Antibiotic MIC, None: <0.13 µg/mL
[1]; antibiotic alone (Table 17)
  Antibiotic MIC, None: <0.13 µg/mL
[1]; [6]
  Antibiotic MIC in presence of C12K(NC8K)7NH2 (SEQ ID NO: 4), +¼ MIC: <0.13 µg/mL
[1]; [7]
  Antibiotic MIC in presence of C12K(NC8K)7NH2 (SEQ ID NO: 4), +½ MIC: <0.13 µg/mL
[1]; [8]
  Antibiotic MIC in presence of C12K(NC8K)7NH2 (SEQ ID NO: 4), +⅓ MIC: <0.13 µg/mL
[1]; [9]
  Antibiotic MIC in presence of the OAK, +¼ MIC: <0.13 µg/mL
[1]; [10]
  Antibiotic MIC in presence of the OAK, +½ MIC: <0.13 µg/mL
[1]; [11]
  Antibiotic MIC in presence of the OAK, +⅓ MIC: <0.13 µg/mL
S. maltophila 748; +¼ MIC (1.6 μM) C12K(KNC12K)3NH2
  Antibiotic MIC: 32 µg/mL
S. maltophila 748; [12]
  Antibiotic MIC: 32 µg/mL
S. maltophila 748; [13]
  Antibiotic MIC: 32 µg/mL
S. maltophila 748; no polymer (None), Table 13
  Antibiotic MIC: 32 µg/mL
E. coli 14384
  Antibiotic MIC: 256 µg/mL and 256 to 512 µg/mL
E. coli 14384; E. coli 14384, +½ MIC C12K(NC8K)5NH2
  Antibiotic MIC: 256 to 512 µg/mL
E. coli 14384; E. coli 14384, antibiotic alone (Table 15)
  Antibiotic MIC, None: 256 to 512 µg/mL
E. coli 14384; E. coli 14384, no polymer (None), Table 9
  Antibiotic MIC: 256 to 512 µg/mL
E. coli 14384; E. coli 14384, no polymer (None), Table 14
  Antibiotic MIC: 256 to 512 µg/mL
E. coli 14384; E. coli 14384, polymer at ¼ of its MIC
  Antibiotic MIC in presence of C12K(NC8K)7NH2 (SEQ ID NO: 4), +¼ MIC: 256 to 512 µg/mL
E. coli 14384; E. coli 14384, polymer at ½ of its MIC
  Antibiotic MIC in presence of C12K(NC8K)7NH2 (SEQ ID NO: 4), +½ MIC: 64 to 128 µg/mL
E. coli 14384; E. coli 14384, polymer at ⅓ of its MIC
  Antibiotic MIC in presence of C12K(NC8K)7NH2 (SEQ ID NO: 4), +⅓ MIC: 256 to 512 µg/mL
S. aureus 15819; [3]
  Antibiotic MIC: 8 to 16 µg/mL
S. aureus 15819; +¼ MIC (1.6 μM) C12KKNC12KNH2
  Antibiotic MIC: 16 µg/mL
S. aureus 15819; [5]
  Antibiotic MIC: 4 µg/mL
S. aureus 15819; [12]
  Antibiotic MIC: 4 µg/mL
S. aureus 15819; +½ MIC (3.12 μM) C12KKNC12KNH2
  Antibiotic MIC: 4 µg/mL
S. aureus 15819; [4]
  Antibiotic MIC: 8 µg/mL
S. aureus 15819; [13]
  Antibiotic MIC: 4 µg/mL
S. aureus 15819; +⅓ MIC (2.1 μM) C12KKNC12KNH2
  Antibiotic MIC: 8 to 16 µg/mL
S. aureus 15819; no polymer (None), Table 8
  Antibiotic MIC: 16 µg/mL
S. aureus 15819; no polymer (None), Table 11
  Antibiotic MIC: 32 µg/mL
S. aureus 15819; no polymer (None), Table 13
  Antibiotic MIC: 32 µg/mL
[2]; antibiotic alone (Table 16)
  Antibiotic MIC, None: 2 µg/mL
[2]; antibiotic alone (Table 17)
  Antibiotic MIC, None: 2 µg/mL
[2]; [6]
  Antibiotic MIC in presence of C12K(NC8K)7NH2 (SEQ ID NO: 4), +¼ MIC: 2 µg/mL
[2]; [7]
  Antibiotic MIC in presence of C12K(NC8K)7NH2 (SEQ ID NO: 4), +½ MIC: 0.5 µg/mL
[2]; [8]
  Antibiotic MIC in presence of C12K(NC8K)7NH2 (SEQ ID NO: 4), +⅓ MIC: 1 µg/mL
[2]; [9]
  Antibiotic MIC in presence of the OAK, +¼ MIC: 1 to 2 µg/mL
[2]; [10]
  Antibiotic MIC in presence of the OAK, +½ MIC: 0.5 µg/mL
[2]; [11]
  Antibiotic MIC in presence of the OAK, +⅓ MIC: 1 µg/mL
MRSA 15903; MRSA 15903, +¼ polymer MIC (1.6 μM) NC12(KNC12K)2NH2
  MIC: 64 µg/mL
MRSA 15903; MRSA 15903, +½ polymer MIC (3.1 μM) NC12(KNC12K)2NH2
  MIC: 1 µg/mL
MRSA 15903; MRSA 15903, +⅓ polymer MIC (2.1 μM) NC12(KNC12K)2NH2
  MIC: 4 µg/mL
MRSA 15903; S. aureus CI-15903, +polymer (¼ MIC) C12(5-ene)KKNC12KNH2
  MIC: 32 µg/mL
MRSA 15903; S. aureus CI-15903, +polymer (½ MIC) C12(5-ene)KKNC12KNH2
  MIC: 0.25 µg/mL
MRSA 15903; S. aureus CI-15903, +polymer (⅓ MIC) C12(5-ene)KKNC12KNH2
  MIC: 4 µg/mL
MRSA 15903; S. aureus CI-15903, alone
  MIC: 256 µg/mL
MRSA 15903; Staphylococcus aureus, MRSA, 24 h
  MIC: 256 µg/mL
